# Experimental data published in patent US20210121482A1, “WITHANOLIDES FOR THE TREATMENT OF CACHEXIA” (University of Louisville Research Foundation, Inc., priority 2019, published 2021).
# Test: Change in tumor-free body weight (Example 3)
# Type: in vivo, mice
# Settings: tumor-bearing, 2 and 4 mg/kg, vs tumor-bearing vehicle
# Description: Experimental tumors were induced as described in Example 2.
# No significant difference in tumor weight between the two doses of WFA was observed (p=0.65).
smiles,measurement,value
"CC1=C(CO)C(=O)O[C@@H]([C@@H](C)[C@H]2CC[C@H]3[C@@H]4C[C@H]5O[C@]56[C@@H](O)C=CC(=O)[C@]6(C)[C@H]4CC[C@]23C)C1 [WFA, (4β,5β,6β,22R)-4,27-Dihydroxy-5,6:22,26-diepoxyergosta-2,24-diene-1,26-dione]",absolute change in tumor-free body weight,significant preservation of body weight loss
